Drawing on patent US9060971B2, “Combination pharmaceutical agents as inhibitors of HCV replication” (Enanta Pharmaceuticals, Inc., priority 2010, dated 2015), this text covers EC50 for 30 molecules.

For the assay, the system named is HCV 1b genotype replicon. Nature of the assay: HCV replicon drug screening assay (quantitative RT-PCR or luciferase), genotype 1b. It counts as cell-based. The note with it: Hepatitis C virus; HCV 1b genotype replicon; quantitative RT-PCR or luciferase assay; read-out: Genotype-1b replicon EC50 Range. The source says: HCV replicon cell lines (kindly provided by R. Bartenschlager) isolated from colonies as described by Lohman et. al. (Lohman et al. (1999) Science 285: 110-113, expressly incorporated by reference in its entirety) and used for all experiments. The HCV replicon has the nucleic acid sequence set forth in EMBL Accession No.: AJ242651, the coding sequence of which is from nucleotides 1801 to 8406.
The coding sequence of the published HCV replicon was synthesized and subsequently assembled in a modified plasmid pBR322 (Promega, Madison, Wis.) using standard molecular biology techniques. One replicon cell line (“SGR 11-7”) stably expresses HCV replicon RNA which consists of (i) the HCV 5′UTR fused to the first 12 amino acids of the capsid protein, (ii) the neomycin phosphotransferase gene (neo), (iii) the IRES from encephalomyocarditis virus (EMCV), and (iv) HCV NS2 to NS5B genes and the HCV 3′UTR. Another replicon cell line (“Huh-luc/neo-ET”) described by Vrolijk et. al. (Vrolijk et. al. (2003) Journal of Virological Methods 110:201-209, expressly incorporated by reference in its entirety) stably expresses HCV replicon RNA which consists of (i) the HCV 5′UTR fused to the first 12 amino acids of the capsid protein, (ii) the firefly luciferase reporter gene, (iii) the ubiquitin gene, (iv) the neomycin phosphotransferase gene (neo), (v) the IRES from encephalomyocarditis virus (EMCV), and (vi) HCV NS3 to NS5B genes that harbor cell culture adaptive mutations (E1202G, T12801, K1846T) and the HCV 3′UTR.
These cell lines are maintained at 37° C., 5% CO2, 100% relative humidity in DMEM (Cat#11965-084, Invitrogen), with 10% fetal calf serum (“FCS”, Invitrogen), 1% non-essential amino acids (Invitrogen), 1% of Glutamax (Invitrogen), 1% of 100× penicillin/streptomycin (Cat#15140-122, Invitrogen) and Geneticin (Cat#10131-027, Invitrogen) at 0.75 mg/ml or 0.5 mg/ml for 11-7 and Huh-luc/neo-ET cells, respectively.
EC50 values of single agent compounds and combinations were determined by HCV RNA detection using quantitative RT-PCR, according to the manufacturer's instructions, with a TAQMAN® One-Step RT-PCR Master Mix Reagents Kit (Cat#AB 4309169, Applied Biosystems) on an ABI Model 7500 thermocycler. The TaqMan primers to use for detecting and quantifying HCV RNA are 5′-GCTGCGGCCTGTCGAGCT-3′ (SEQ ID NO: 1), 5′-CAAGGTCGTCTCCGCATAC-3′ (SEQ ID NO: 2) and the probe 5′-FAM-[…]-BHQ-3′ (SEQ ID NO: 3) obtained from Integrated DNA Technologies. HCV RNA is normalized to GAPDH RNA levels in drug-treated cells, which is detected and quantified using the Human GAPDH Endogenous Control Mix (Applied Biosystems, AB 4310884E). Total cellular RNA is purified from 96-well plates using the RNAqueous 96 kit (Ambion, Cat#AM1812). Chemical agent cytotoxicity was evaluated using an MTS assay according to the manufacturer's directions (Promega).
The compounds described herein can be effective against the HCV 1b genotype. It should also be understood that the compounds can inhibit multiple genotypes of HCV. In one embodiment, compounds of Formula (I) are active against the 1a, 1b, 2a, 2b, 3a, 4a, and 5a genotypes. […] The EC50 ranges were classified into the following groups: A>10 nM; B 1-10 nM; C<1 nM. The potential cytotoxicities of each agent were analyzed in parallel by MTS assay and are greater than 3 uM for all agents.
For `COC(=O)N[C@H](C(=O)N1CCC[C@H]1c1nc2cc(-c3ccc4nc(-c5ccc6[nH]c([C@@H]7CCCN7C(=O)[C@@H](NC(=O)OC)C(C)C)nc6c5)ncc4c3)ccc2[nH]1)C(C)C` [Compound 21], the EC50 is less than 1 nM. For the molecule `COC(=O)N[C@H](C(=O)N1CCC[C@H]1c1nc(-c2ccc3cc(-c4ccc5[nH]c([C@@H]6CCCN6C(=O)[C@@H](NC(=O)OC)C(C)C)nc5c4)ccc3c2)c[nH]1)C(C)C` [Compound 48], the EC50 is less than 1 nM. Turning to `COC(=O)N[C@H](C(=O)N1CCC[C@H]1c1nc(-c2ccc(C#Cc3ccc4[nH]c([C@@H]5CCCN5C(=O)[C@@H](NC(=O)OC)[C@@H](C)OC)nc4c3)cc2)c[nH]1)C(C)C` [Compound 80], the EC50 was less than 1 nM.

Regarding `C=C(c1ccc(-c2c[nH]c([C@@H]3CCCN3C(=O)[C@@H](NC(=O)OC)C(C)C)n2)cc1)c1ccc2nc([C@@H]3CCCN3C(=O)[C@@H](NC(=O)OC)C(C)C)[nH]c2c1` [Compound 70], the EC50 was less than 1 nM. As for `CC[C@H](NC(=O)OC)C(=O)N1CCC[C@H]1c1nc2cc(C#Cc3ccc(-c4c[nH]c([C@@H]5CCCN5C(=O)[C@@H](NC(=O)OC)C(C)C)n4)cc3)ccc2[nH]1` [Compound 77], the EC50 was less than 1 nM. The figure for `COC(=O)N[C@H](C(=O)N1CCC[C@H]1c1nc(-c2ccc(C#Cc3ccc4[nH]c([C@@H]5CC(=O)CN5C(=O)[C@@H](NC(=O)OC)C(C)C)nc4c3)cc2)c[nH]1)C(C)C` [Compound 66] is less than 1 nM. Regarding `COC(=O)N[C@H](C(=O)N1CCC[C@H]1c1nc2cc(C#Cc3ccc(-c4ccc5[nH]c([C@@H]6CCCN6C(=O)[C@@H](NC(=O)OC)C(C)C)nc5c4)cc3)ccc2[nH]1)C(C)C` [Compound 33], the EC50 was less than 1 nM. For the molecule `COC(=O)N[C@@H](C(=O)N1CCC[C@H]1c1nc2ccc(CCc3ccc(-c4cnc([C@@H]5CCCN5C(=O)[C@H](NC(=O)OC)c5ccccc5)o4)cc3)cc2[nH]1)c1ccccc1` [Compound 104], the EC50 was less than 1 nM. With `COC(=O)N[C@H](C(=O)N1[C@@H]2CC[C@@H](C2)[C@H]1c1nc(-c2ccc(C#Cc3ccc4[nH]c([C@@H]5[C@H]6CC[C@H](C6)N5C(=O)[C@@H](NC(=O)OC)C(C)C)nc4c3)cc2)c[nH]1)C(C)C` [Compound 126], the EC50 is less than 1 nM.

Consider `COC(=O)N[C@@H](C(=O)N1CCC[C@H]1c1nc2cc(CCCCc3ccc4[nH]c([C@@H]5CCCN5C(=O)[C@H](NC(=O)OC)c5ccccc5)nc4c3)ccc2[nH]1)c1ccccc1` [Compound 29], for which the EC50 was less than 1 nM. Under `COC(=O)N[C@@H](C(=O)N1CCC[C@H]1c1ncc(-c2ccc(CCc3ccc4nc([C@@H]5CCCN5C(=O)[C@H](NC(=O)OC)c5ccccc5)[nH]c4c3)cc2)[nH]1)c1ccccc1` [Compound 37] stands less than 1 nM. Under `COC(=O)N[C@H](C(=O)N1CCC[C@H]1c1nc(-c2ccc(C#Cc3ccc4[nH]c([C@@H]5CCCN5C(=O)[C@H](NC(=O)OC)C(C)C)nc4c3)cc2)c[nH]1)C(C)C` [Compound 83] stands less than 1 nM. As for `COC(=O)N[C@H](C(=O)N1CCC[C@H]1c1nc(-c2ccc(CCc3ccc4[nH]c([C@@H]5CCCN5C(=O)[C@@H](NC(=O)OC)C(C)C)nc4c3)s2)c[nH]1)C(C)C` [Compound 46], the EC50 was less than 1 nM. In the case of `COC(=O)N[C@H](C(=O)N1CCC[C@H]1c1nc(-c2ccc(C#Cc3ccc4[nH]c([C@@H]5CCCN5C(=O)[C@@H](NC(=O)OC)C(C)C)nc4n3)cc2)c[nH]1)C(C)C` [Compound 113], the EC50 is less than 1 nM. As for `COC(=O)N[C@H](C(=O)N1CCC[C@H]1c1nc(-c2ccc(C#Cc3cc4nc([C@@H]5CCCN5C(=O)[C@@H](NC(=O)OC)C(C)C)[nH]c4cc3Cl)cc2)c[nH]1)C(C)C` [Compound 65], the EC50 is less than 1 nM. Consider `COC(=O)N[C@H](C(=O)N1CCC[C@H]1c1ncc(-c2ccc(CCCc3ccc4[nH]c([C@@H]5CCCN5C(=O)[C@@H](NC(=O)OC)C(C)C)nc4c3)cc2)[nH]1)C(C)C` [Compound 43], for which the EC50 was less than 1 nM. As for `COC(=O)N[C@H](C(=O)N1CCC[C@H]1c1nc(-c2ccc3cc(C#Cc4ccc5[nH]c([C@@H]6CCCN6C(=O)[C@@H](NC(=O)OC)C(C)C)nc5c4)ccc3c2)c[nH]1)C(C)C` [Compound 60], the EC50 was less than 1 nM. As to `COC(=O)N[C@H](C(=O)N1CCC[C@H]1c1nc(CCc2ccc3cc(-c4ccc5[nH]c([C@@H]6CCCN6C(=O)[C@@H](NC(=O)OC)C(C)C)nc5c4)ccc3c2)c[nH]1)C(C)C` [Compound 58], the EC50 is less than 1 nM. On to `COC(=O)N[C@H](C(=O)N1CCC[C@H]1c1nc2cc(C#Cc3ccc(-c4c[nH]c([C@@H]5CCCN5C(=O)OC(C)(C)C)n4)cc3)ccc2[nH]1)C(C)C` [Compound 85], for which the EC50 is less than 1 nM. On to `COC(=O)N[C@H](C(=O)N1CCC[C@H]1c1nc(-c2ccc(CCc3ccc4[nH]c([C@@H]5CCCN5C(=O)[C@@H](NC(=O)OC)C(C)C)nc4c3)cc2)c[nH]1)C(C)C` [Compound 71], for which the EC50 is less than 1 nM. In the case of `COC(=O)N[C@H](C(=O)N1CCC[C@H]1c1nc2cc(C#Cc3ccc(-c4c[nH]c([C@@H]5CCCN5C(=O)[C@@H](NC(=O)OC)C(C)C)n4)cc3)ccc2[nH]1)c1ccccc1` [Compound 84], the EC50 was less than 1 nM. On to `CON=C1C[C@@H](c2nc3cc(C#Cc4ccc(-c5c[nH]c([C@@H]6CCCN6C(=O)[C@@H](NC(=O)OC)C(C)C)n5)cc4)ccc3[nH]2)N(C(=O)[C@@H](NC(=O)OC)C(C)C)C1` [Compound 131], for which the EC50 is less than 1 nM. For the molecule `COC(=O)N[C@H](C(=O)N1CCC[C@H]1c1nc2cc(CCc3ccc(-c4ccc5[nH]c([C@@H]6CCCN6C(=O)[C@@H](NC(=O)OC)C(C)C)nc5c4)cc3)ccc2[nH]1)C(C)C` [Compound 34], the EC50 is less than 1 nM. For the molecule `COC(=O)N[C@H](C(=O)N1CCC[C@H]1c1ncc(-c2ccc(C#Cc3ccc4nc([C@@H]5CCCN5C(=O)[C@@H](NC(=O)OC)[C@H](C)O)[nH]c4c3)cc2)[nH]1)C(C)C` [Compound 101], the EC50 was less than 1 nM.

As to `COC(=O)N[C@H](C(=O)N1CCC[C@H]1c1nc2cc(C#Cc3ccc(-c4c[nH]c(C5[C@H]6CC[C@H](C6)N5C(=O)[C@@H](NC(=O)OC)C(C)C)n4)cc3)ccc2[nH]1)C(C)C` (stereo partly drawn) [Compound 122], the EC50 is less than 1 nM. With `COC(=O)N[C@H](C(=O)N1CCC[C@H]1c1nc(-c2ccc3cc(/C=C/c4ccc5[nH]c([C@@H]6CCCN6C(=O)[C@@H](NC(=O)OC)C(C)C)nc5c4)ccc3c2)c[nH]1)C(C)C` [Compound 61], the EC50 is less than 1 nM. Consider `COC(=O)N[C@H](C(=O)N1CCC[C@H]1c1nc(-c2ccc(C#Cc3ccc4[nH]c([C@@H]5CCCN5C(=O)OC(C)(C)C)nc4c3)cc2)c[nH]1)C(C)C` [Compound 75], for which the concentration giving a half-maximal response (EC50) lay within 1 to 10 nM. The figure for `COC(=O)N[C@@H](C(=O)N1CCC[C@H]1c1nc2cc(CC=CCc3ccc4[nH]c([C@@H]5CCCN5C(=O)[C@H](NC(=O)OC)c5ccccc5)nc4c3)ccc2[nH]1)c1ccccc1` [Compound 28] is less than 1 nM. For the molecule `COC(=O)N[C@H](C(=O)N1CCC[C@H]1c1ncc(-c2ccc(C#Cc3ccc4nc([C@@H]5C[C@H]6C[C@H]6N5C(=O)[C@@H](NC(=O)OC)C(C)C)[nH]c4c3)cc2)[nH]1)C(C)C` [Compound 107], the EC50 is less than 1 nM. Under `COC(=O)N[C@H](C(=O)N1CCC[C@H]1c1ncc(-c2ccc(-c3ccc(-c4ccc5nc([C@@H]6CCCN6C(=O)[C@@H](NC(=O)OC)C(C)C)[nH]c5c4)cc3)cc2)[nH]1)C(C)C` [Compound 74] stands less than 1 nM.

As a reminder, the EC50 is the concentration giving half of the maximal effect.
